Experimental data as given in US6358885B1, “Substituted phenylheterocyclic herbicides” (Mississippi State University, priority 1992, dated 2002).

What was measured:
purple nutsedge = test: Test B preemergence/postemergence greenhouse plant response rating 0 to 10; format: in vivo, Cyperus rotundus; details: for Plant response rating, Nutsedge: 0 to 10 scale
Summary of the method: (§1)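 Planted seeds are treated preemergence with compound dissolved in a non-phytotoxic solvent, while postemergence applications go onto plants of two to eighteen cm. Plants stay in the greenhouse twelve to sixteen days and are then rated visually relative to controls.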

corn [1] = test: as above; format: in vivo, Zea mays; details: for Plant response rating, Corn: 0 to 10 scale
Summary of the method: as §1

crabgrass = test: Test C preemergence/postemergence greenhouse plant response rating 0 to 100; format: in vivo, Digitaria sanguinalis; details: for Plant response rating, Crabgrass: 0 to 100 scale
Summary of the method: (§2)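 Compounds in non-phytotoxic solvent went onto sandy loam before emergence (seeded one day earlier) or onto plants at the one-to-four leaf stage. Duck salad was treated via flood water (~2.5 cm, maintained) over silt loam.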

rape = test: as above; format: in vivo, Brassica napus; details: for Plant response rating, Rape: 0 to 100 scale
Summary of the method: as §2

sorghum = test: Test B preemergence/postemergence greenhouse plant response rating 0 to 10; format: in vivo, Sorghum bicolor; details: for Plant response rating, Sorghum: 0 to 10 scale
Summary of the method: as §1

blackgrass = test: as above; format: in vivo, Alopecurus myosuroides; details: for Plant response rating, Blackgrass: POSTEMERGENCE, 0 to 10 scale
Summary of the method: as §1

sugar beet = test: as above; format: in vivo, Beta vulgaris; details: for Plant response rating, Sugar beet: 0 to 10 scale
Summary of the method: as §1

chickweed = test: as above; format: in vivo, Stellaria media; details: PREEMERGENCE
Summary of the method: as §1

morningglory = test: Test C preemergence/postemergence greenhouse plant response rating 0 to 100; format: in vivo, Ipomoea hederacea; details: for Plant response rating, Morningglory: 0 to 100 scale
Summary of the method: as §2

velvetleaf = test: Test B preemergence/postemergence greenhouse plant response rating 0 to 10; format: in vivo, Abutilon theophrasti; details: for Plant response rating, Velvetleaf: 0 to 10 scale
Summary of the method: as §1

wild oat = test: Test C preemergence/postemergence greenhouse plant response rating 0 to 100; format: in vivo, Avena fatua; details: for Plant response rating, Wild oat: 0 to 100 scale
Summary of the method: as §2

barnyardgrass = test: Test B preemergence/postemergence greenhouse plant response rating 0 to 10; format: in vivo, Echinochloa crus-galli; details: for Plant response rating, Barnyardgrass: 0 to 10 scale
Summary of the method: as §1

barley = test: as above; format: in vivo, Hordeum vulgare; details: for Plant response rating, Barley: 0 to 10 scale
Summary of the method: as §1

wheat = test: Test C preemergence/postemergence greenhouse plant response rating 0 to 100; format: in vivo, Triticum aestivum; details: for Plant response rating, Wheat: 0 to 100 scale
Summary of the method: as §2

rice = test: Test C flood test plant response rating 0 to 100; format: in vivo, Oryza sativa; details: for Plant response rating Rice Japonica: flood test species listed under POSTEMERGENCE, 0 to 100 scale
Summary of the method: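 Compounds in non-phytotoxic solvent applied preemergence to sandy loam one day after planting, postemergence at the 1–4 leaf stage, or to ~2.5 cm floodwater over silt loam.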

ryegrass = test: Test C preemergence/postemergence greenhouse plant response rating 0 to 100; format: in vivo, Lolium multiflorum; details: for Plant response rating Ryegrass: 0 to 100 scale
Summary of the method: as §2

bedstraw = test: as above; format: in vivo, Galium aparine; details: for Plant response rating, Bedstraw: 0 to 100 scale
Summary of the method: as §2

corn [2] = test: as above; format: in vivo, Zea mays; details: for Plant response rating, Corn: 0 to 100 scale
Summary of the method: as §2

C#CC(C)Oc1cc(-c2nn3c(c2Br)CCCC3)c(F)cc1Cl (stereo not drawn) [Compound 66]
Plant response rating, Nutsedge (purple nutsedge; POSTEMERGENCE, Rate 50 g/ha): 2
Plant response rating, Nutsedge (purple nutsedge; PREEMERGENCE, Rate 50 g/ha): 0
Plant response rating (0 to 10 scale), Nutsedge (purple nutsedge; PREEMERGENCE, Rate 200 g/ha): 0
Plant response rating, Nutsedge (purple nutsedge; Rate 200 g/ha, POSTEMERGENCE): 2
Plant response rating, Corn (corn [1]; POSTEMERGENCE, Rate 50 g/ha): 3
Plant response rating, Corn (corn [1]; PREEMERGENCE, Rate 50 g/ha): 0
Plant response rating (0 to 10 scale), Corn (corn [1]; PREEMERGENCE, Rate 200 g/ha): 0
Plant response rating, Corn (corn [1]; Rate 200 g/ha, POSTEMERGENCE): 3
Plant response rating, Crabgrass (crabgrass; POSTEMERGENCE, 62 g/ha): 40
Plant response rating, Crabgrass (crabgrass; POSTEMERGENCE, 250 g/ha): 50
Plant response rating (0 to 100), Crabgrass (crabgrass; POSTEMERGENCE, Rate 4 g/ha): 10
Plant response rating, Crabgrass (crabgrass; PREEMERGENCE, 62 g/ha): 50
Plant response rating, Crabgrass (crabgrass; PREEMERGENCE, 250 g/ha): 100
Plant response rating (0 to 100), Crabgrass (crabgrass; PREEMERGENCE, Rate 4 g/ha): 0
Plant response rating (0 to 100), Crabgrass (crabgrass; Rate 16 g/ha, POSTEMERGENCE): 20
Plant response rating (0 to 100), Crabgrass (crabgrass; Rate 16 g/ha, PREEMERGENCE): 0
Plant response rating, Rape (rape; POSTEMERGENCE, 62 g/ha): 100
Plant response rating, Rape (rape; POSTEMERGENCE, 250 g/ha): 100
Plant response rating (0 to 100), Rape (rape; POSTEMERGENCE, Rate 4 g/ha): 40
Plant response rating, Rape (rape; PREEMERGENCE, 62 g/ha): 20
Plant response rating, Rape (rape; PREEMERGENCE, 250 g/ha): 30
Plant response rating (0 to 100), Rape (rape; PREEMERGENCE, Rate 4 g/ha): 0
Plant response rating (0 to 100), Rape (rape; Rate 16 g/ha, POSTEMERGENCE): 60
Plant response rating (0 to 100), Rape (rape; Rate 16 g/ha, PREEMERGENCE): 0
Plant response rating, Sorghum (sorghum; POSTEMERGENCE, Rate 50 g/ha): 5
Plant response rating, Sorghum (sorghum; PREEMERGENCE, Rate 50 g/ha): 0
Plant response rating (0 to 10 scale), Sorghum (sorghum; PREEMERGENCE, Rate 200 g/ha): 0
Plant response rating, Sorghum (sorghum; Rate 200 g/ha, POSTEMERGENCE): 7
Plant response rating, Blackgrass (blackgrass; Rate 50 g/ha): 4
Plant response rating (0 to 10 scale), Blackgrass (blackgrass; PREEMERGENCE, Rate 200 g/ha): 7
Plant response rating, Blackgrass (blackgrass; Rate 200 g/ha): 6
Plant response rating, Sugar beet (sugar beet; POSTEMERGENCE, Rate 50 g/ha): 10
Plant response rating, Sugar beet (sugar beet; PREEMERGENCE, Rate 50 g/ha): 8
Plant response rating (0 to 10 scale), Sugar beet (sugar beet; PREEMERGENCE, Rate 200 g/ha): 10
Plant response rating, Sugar beet (sugar beet; Rate 200 g/ha, POSTEMERGENCE): 10
Plant response rating, Chickweed (chickweed; Rate 50 g/ha, 0 to 10 scale): 4
Plant response rating (0 to 10 scale), Chickweed (chickweed; Rate 200 g/ha): 5
Plant response rating, Morningglory (morningglory; POSTEMERGENCE, 62 g/ha): 85
Plant response rating, Morningglory (morningglory; POSTEMERGENCE, 250 g/ha): 100
Plant response rating (0 to 100), Morningglory (morningglory; POSTEMERGENCE, Rate 4 g/ha): 50
Plant response rating, Morningglory (morningglory; PREEMERGENCE, 62 g/ha): 10
Plant response rating, Morningglory (morningglory; PREEMERGENCE, 250 g/ha): 60
Plant response rating (0 to 100), Morningglory (morningglory; PREEMERGENCE, Rate 4 g/ha): 0
Plant response rating (0 to 100), Morningglory (morningglory; Rate 16 g/ha, POSTEMERGENCE): 50
Plant response rating (0 to 100), Morningglory (morningglory; Rate 16 g/ha, PREEMERGENCE): 0
Plant response rating, Velvetleaf (velvetleaf; POSTEMERGENCE, Rate 50 g/ha): 10
Plant response rating, Velvetleaf (velvetleaf; PREEMERGENCE, Rate 50 g/ha): 6
Plant response rating (0 to 10 scale), Velvetleaf (velvetleaf; PREEMERGENCE, Rate 200 g/ha): 9
Plant response rating, Velvetleaf (velvetleaf; Rate 200 g/ha, POSTEMERGENCE): 10
Plant response rating, Wild oat (wild oat; POSTEMERGENCE, 62 g/ha): 50
Plant response rating, Wild oat (wild oat; POSTEMERGENCE, 250 g/ha): 60
Plant response rating (0 to 100), Wild oat (wild oat; POSTEMERGENCE, Rate 4 g/ha): 10
Plant response rating, Wild oat (wild oat; PREEMERGENCE, 250 g/ha): 30
Plant response rating (0 to 100), Wild oat (wild oat; PREEMERGENCE, Rate 4 g/ha): 0
Plant response rating (0 to 100), Wild oat (wild oat; Rate 16 g/ha, POSTEMERGENCE): 20
Plant response rating (0 to 100), Wild oat (wild oat; Rate 16 g/ha, PREEMERGENCE): 0
Plant response rating, Barnyardgrass (barnyardgrass; POSTEMERGENCE, Rate 50 g/ha): 5
Plant response rating, Barnyardgrass (barnyardgrass; PREEMERGENCE, Rate 50 g/ha): 0
Plant response rating (0 to 10 scale), Barnyardgrass (barnyardgrass; PREEMERGENCE, Rate 200 g/ha): 7
Plant response rating, Barnyardgrass (barnyardgrass; Rate 200 g/ha, POSTEMERGENCE): 9
Plant response rating, Barley (barley; POSTEMERGENCE, Rate 50 g/ha): 5
Plant response rating, Barley (barley; PREEMERGENCE, Rate 50 g/ha): 0
Plant response rating (0 to 10 scale), Barley (barley; PREEMERGENCE, Rate 200 g/ha): 2
Plant response rating, Barley (barley; Rate 200 g/ha, POSTEMERGENCE): 6
Plant response rating, Wheat (wheat; POSTEMERGENCE, 62 g/ha): 60
Plant response rating, Wheat (wheat; POSTEMERGENCE, 250 g/ha): 70
Plant response rating (0 to 100), Wheat (wheat; POSTEMERGENCE, Rate 4 g/ha): 20
Plant response rating, Wheat (wheat; PREEMERGENCE, 250 g/ha): 70
Plant response rating (0 to 100), Wheat (wheat; PREEMERGENCE, Rate 4 g/ha): 0
Plant response rating (0 to 100), Wheat (wheat; Rate 16 g/ha, POSTEMERGENCE): 40
Plant response rating (0 to 100), Wheat (wheat; Rate 16 g/ha, PREEMERGENCE): 0
Plant response rating (0 to 100), Rice Japonica (rice; POSTEMERGENCE section, flood test, Rate 4 g/ha): 0
Plant response rating (0 to 100), Rice Japonica (rice; Rate 16 g/ha, under POSTEMERGENCE head (flood test species)): 0
Plant response rating Rice Japonica (rice; 62 g/ha): 10
Plant response rating Rice Japonica (rice; 250 g/ha): 25
Plant response rating Ryegrass (ryegrass; POSTEMERGENCE, 62 g/ha): 50
Plant response rating Ryegrass (ryegrass; POSTEMERGENCE, 250 g/ha): 75
Plant response rating (0 to 100), Ryegrass (ryegrass; POSTEMERGENCE, Rate 4 g/ha): 10
Plant response rating Ryegrass (ryegrass; PREEMERGENCE, 62 g/ha): 50
Plant response rating Ryegrass (ryegrass; PREEMERGENCE, 250 g/ha): 70
Plant response rating (0 to 100), Ryegrass (ryegrass; PREEMERGENCE, Rate 4 g/ha): 0
Plant response rating (0 to 100), Ryegrass (ryegrass; Rate 16 g/ha, POSTEMERGENCE): 30
Plant response rating (0 to 100), Ryegrass (ryegrass; Rate 16 g/ha, PREEMERGENCE): 20
Plant response rating, Bedstraw (bedstraw; POSTEMERGENCE, 62 g/ha): 100
Plant response rating, Bedstraw (bedstraw; POSTEMERGENCE, 250 g/ha): 100
Plant response rating (0 to 100), Bedstraw (bedstraw; POSTEMERGENCE, Rate 4 g/ha): 60
Plant response rating, Bedstraw (bedstraw; PREEMERGENCE, 62 g/ha): 80
Plant response rating, Bedstraw (bedstraw; PREEMERGENCE, 250 g/ha): 90
Plant response rating (0 to 100), Bedstraw (bedstraw; PREEMERGENCE, Rate 4 g/ha): 0
Plant response rating (0 to 100), Bedstraw (bedstraw; Rate 16 g/ha, POSTEMERGENCE): 85
Plant response rating (0 to 100), Bedstraw (bedstraw; Rate 16 g/ha, PREEMERGENCE): 20
Plant response rating, Corn (corn [2]; POSTEMERGENCE, 62 g/ha): 40
Plant response rating, Corn (corn [2]; POSTEMERGENCE, 250 g/ha): 60
Plant response rating (0 to 100), Corn (corn [2]; POSTEMERGENCE, Rate 4 g/ha): 30
Plant response rating, Corn (corn [2]; PREEMERGENCE, 62 g/ha): 0
Plant response rating, Corn (corn [2]; PREEMERGENCE, 250 g/ha): 60
Plant response rating (0 to 100), Corn (corn [2]; PREEMERGENCE, Rate 4 g/ha): 0
Plant response rating (0 to 100), Corn (corn [2]; Rate 16 g/ha, POSTEMERGENCE): 30
Plant response rating (0 to 100), Corn (corn [2]; Rate 16 g/ha, PREEMERGENCE): 0
